Reference: patent US7842671B1, “Peptidomimetic inhibitors of STAT activity and uses thereof” (University of South Florida, priority 2003, dated 2010)

How the values were obtained:
Stat3 [1] = target: Stat3 (Mus musculus, UniProt P42227); assay: EMSA of Stat3 DNA-binding activity in nuclear extracts (hSIE probe); assay type: biochemical; set-up: nuclear extracts (prepared from epidermal growth factor (EGF)-stimulated fibroblasts); endogenous in cells; host or cells: NIH3T3 fibroblasts stimulated with EGF; details: EMSA
Sequence of Stat3 (Mus musculus, UniProt P42227) (P42227 whole entry): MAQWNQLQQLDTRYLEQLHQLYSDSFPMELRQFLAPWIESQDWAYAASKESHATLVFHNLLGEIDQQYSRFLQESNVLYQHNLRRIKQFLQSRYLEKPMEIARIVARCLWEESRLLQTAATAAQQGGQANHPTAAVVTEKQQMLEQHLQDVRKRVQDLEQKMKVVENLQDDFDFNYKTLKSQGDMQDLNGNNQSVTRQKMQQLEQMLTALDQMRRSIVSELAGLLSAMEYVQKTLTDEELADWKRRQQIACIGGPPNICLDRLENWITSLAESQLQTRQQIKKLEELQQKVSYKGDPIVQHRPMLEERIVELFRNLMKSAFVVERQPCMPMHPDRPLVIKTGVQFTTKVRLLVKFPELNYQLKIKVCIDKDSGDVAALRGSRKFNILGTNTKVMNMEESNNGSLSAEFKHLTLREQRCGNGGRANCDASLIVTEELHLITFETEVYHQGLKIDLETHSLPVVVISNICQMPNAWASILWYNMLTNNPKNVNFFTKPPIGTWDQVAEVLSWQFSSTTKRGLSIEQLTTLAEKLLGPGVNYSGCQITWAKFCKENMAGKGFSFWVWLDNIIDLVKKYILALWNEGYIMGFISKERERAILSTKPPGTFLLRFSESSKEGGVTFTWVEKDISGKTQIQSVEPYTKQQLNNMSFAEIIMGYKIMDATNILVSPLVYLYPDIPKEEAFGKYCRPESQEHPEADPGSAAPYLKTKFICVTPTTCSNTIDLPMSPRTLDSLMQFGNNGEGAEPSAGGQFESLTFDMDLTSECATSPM
Protocol: (§1) Nuclear extract preparation and gel shift assays. Nuclear extracts were prepared from cell lines and used for electrophoretic mobility shift assay (EMSA) as previously described (Garcia, R. et al. (1997); Yu, C. L. et al. (1995); Turkson, J. et al. (1998)). In some cases, cells were pre-treated with peptidomimetics for the indicated times (12-48 h) prior to harvesting for nuclear extract preparation. In other studies, nuclear extracts were pre-incubated with peptidomimetics for 30 min at room temperature prior to incubation with radiolabeled probe. The ^32P-radiolabeled oligonucleotide probes used are hSIE (high affinity sis-inducible element, m67 variant, 5′-[…]-3′) (SEQ ID NO. 3) that binds both Stat1 and Stat3 (Garcia, R. et al. (1997); Wagner B. J. et al. (1990)) and MGFe (mammary gland factor element from the bovine β-casein gene promoter, 5′-[…]-3′) (SEQ ID NO. 4) that binds Stat1 and Stat5 (Gouilleux, F. et al. (1995); Seidel, H. M. et al. (1995)).
Peptidomimetics of the invention can be prepared by replacing prolyl or alanyl residue at the peptide bond that is N-terminal to the phosphotyrosine (Y*) of a peptide such as PY*L or AY*L with an organic substituent such as an optionally substituted aryl or heteroaryl group. The activities of STATs were measured in nuclear extracts (prepared from epidermal growth factor (EGF)-stimulated fibroblasts) as DNA-bound protein complexes by electrophoretic mobility shift assay (EMSA).
From densitometric analysis of band intensities, the IC50 values (concentration of peptidomimetic at which DNA-binding activity is reduced by 50%), which are reported in Table 3, were determined.

Stat3 [2] = target: T1, Stat3 (Homo sapiens, UniProt P40763); assay type: cell-based
T1 construct: endogenous in cells; host or cells: A549, MDA-MB-231, MDA-MB-435, MDA-MB-468
T1 sequence (P40763 whole entry): as the sequence (P42227 whole entry) above, with D760E counted along it
Protocol: as §1

[3] = tested on: Stat3-dependent luciferase reporter, pLucTKS3; assay type: cell-based; details: 1 mM, Src-transformed mouse cells
Description: (§2) Plasmids. The Stat3 reporter, pLucTKS3, driving expression of the firefly luciferase gene and the Stat3-independent plasmid, pRLSRE, containing two copies of the serum response element (SRE) from the c-fos promoter (Turkson, J. et al. (1998); Zhang, Y. et al. (2000)) that drives renilla luciferase gene (Promega; Madison, Wis.) expression, have been previously described (Turkson, J. et al. (2001); Turkson, J. et al. (1999)).
(§3) Cytosolic extract preparation and luciferase assays. Cytosolic extract preparation from fibroblasts and luciferase assays were previously described (Turkson, J. et al. (1998); Turkson, J. et al. (1999)). Briefly, after two washes with PBS and equilibration for 5 min with 0.5 ml PBS-0.5 mM EDTA, cells were scraped off the dishes and the cell pellet was obtained by centrifugation (4,500×g, 2 min, 4° C.). Cells were resuspended in 0.4 ml of low-salt HEPES buffer (10 mM HEPES (pH 7.8), 10 mM KCl, 0.1 mM EGTA, 0.1 mM EDTA, 1 mM phenylmethylsulfonyl fluoride, and 1 mM dithiothreitol) for 15 min, lysed by the addition of 20 μl of 10% Nonidet P-40 (NP-40), and centrifuged (10,000×g, 30 s, 4° C.) to obtain the cytosolic supernatant, which was used for luciferase assays (Promega) measured with a luminometer. […]

[4] = tested on: Stat3-independent luciferase reporter, pRLSRE; assay type: cell-based; details: 1 mM, Src-transformed mouse cells
Description: as §2, §3

MDA-MB-435 = assay type: cell-based, human; details: 1 mM, MDA-MB-435, four days
Protocol: (§4) Cell proliferation, soft-agar growth and Apo-BrdU labeling studies. Proliferating fibroblasts and human tumor cells were counted by phase-contrast microscopy for viable cells (using tyrpan blue exclusion). Colony formation assays in six-well dishes and quantification of colonies by iodonitrotetrazolium violet have been previously described (Turkson, J. et al. (1999)). Treatment of cells with inhibitors was initiated 1 day after seeding cells by adding 75 μl of medium with or without inhibitor, and repeated every two to three days. Apoptosis was measured by Apo-BrdU labeling and following the supplier's (PharMingen; San Diego, Calif.) instructions.
(§5) Stat3 has an essential role in cell proliferation, and constitutively-active Stat3 is required for growth of transformed and tumor cells that harbor aberrant Stat3 signaling. Studies were performed to determine the effects of the peptidomimetic-mediated inhibition of Stat3 on cell proliferation using trypan blue exclusion for viable cell counts.

MDA-MB-231 = assay type: cell-based, human; details: 1 mM, MDA-MB-231, four days
Protocol: as §4, §5

MDA-MB-453 = assay type: cell-based, human; details: 1 mM
Protocol: as §4, §5

NIH3T3/v-Src = assay: Soft-agar growth of v-Src-transformed fibroblasts; assay type: cell-based, mouse; details: 1 mM every 2-3 days
Protocol: as §4
Previous studies with PY*LKTK-MTS (SEQ ID NO. 1) (Turkson, J. et al., 2001)) confirmed that inhibition of constitutive Stat3 activation blocks Src transformation (Turkson, J. et al. (1998); Turkson, J. et al., (1999); Bromberg, J. R. et al. (1998)).

[5] = tested on: Stat1:Stat1 and Stat3:Stat3 dimers; assay: Dissociation-reassociation analysis of pooled Sf-9 lysates by EMSA; assay type: biochemical; details: 30 min pre-treatment, 30-300 μM PY*LKTK or 3-1000 μM ISS 610, hSIE probe
Protocol: Cytosolic extract preparation and luciferase assays. Cytosolic extract preparation from fibroblasts and luciferase assays were previously described (Turkson, J. et al. (1998); Turkson, J. et al. (1999)). Briefly, after two washes with PBS and equilibration for 5 min with 0.5 ml PBS-0.5 mM EDTA, cells were scraped off the dishes and the cell pellet was obtained by centrifugation (4,500×g, 2 min, 4° C.). Cells were resuspended in 0.4 ml of low-salt HEPES buffer (10 mM HEPES (pH 7.8), 10 mM KCl, 0.1 mM EGTA, 0.1 mM EDTA, 1 mM phenylmethylsulfonyl fluoride, and 1 mM dithiothreitol) for 15 min, lysed by the addition of 20 μl of 10% Nonidet P-40 (NP-40), and centrifuged (10,000×g, 30 s, 4° C.) to obtain the cytosolic supernatant, which was used for luciferase assays (Promega) measured with a luminometer. Cytosolic lysates containing activated Stat3 or Stat1 that were used for dissociation-reassociation analysis were prepared from baculovirus-infected Sf-9 insect cells as previously described (Turkson, J. et al. (2001); Zhang, Y. et al. (2000)). Briefly, cultured dishes of Sf-9 cells were washed twice with ice-cold 1×PBS and then PBS containing 1 mM sodium orthovanadate.

CC(C)CC(NC(=O)C(Cc1ccc(OP(=O)(O)O)cc1)NC(=O)c1ccc(C#N)cc1)C(=O)O (centres unmarked) [ISS 610]
increase in potency in inhibiting Stat3 DNA-binding activity compared to tripeptides PY*L or AY*L (Stat3 [1]; in vitro): 5 fold | effect on Stat3 DNA-binding activity in vitro (in words) (Stat3 [1]; nuclear extracts): potent disrupters of active Stat3 | Stat3 activation in breast carcinoma cells (EMSA) (Stat3 [2]): time-dependent reduction of Stat3 activation | Stat3 activation in human non-small cell lung carcinoma cells (EMSA) (Stat3 [2]): time-dependent reduction of Stat3 activation | transcriptional induction of the Stat3-dependent luciferase reporter pLucTKS3 [3]: significant suppression | induction of the Stat3-independent luciferase reporter pRLSRE [4]: no effect | cell proliferation (MDA-MB-435): significantly suppresses proliferation | cell proliferation (MDA-MB-231): significantly suppresses proliferation | cell proliferation (MDA-MB-453): no effect on cell proliferation | growth in soft-agar suspension (NIH3T3/v-Src): significantly suppressed | effect on STAT dimers in mixed Stat1:Stat1 and Stat3:Stat3 lysates [5]: appearance of an additional intermediate band representing Stat1:Stat3 heterodimers
